{
  "source": "patent US20050209278A1",
  "about": "“Piperidinyl- and piperazinyl-sulfonylmethyl hydroxamic acids and their use as protease inhibitors” (priority 2002, published 2005)",
  "type_in_all_cases": "biochemical",
  "key": {"[1]": {"molecular_target": "T1, MMP-2 (Homo sapiens, UniProt P08253)", "T1 construct": "made in house; host or cells: MMP-2-transfected p2AHT2 cells", "T1 sequence (P08253 110-660)": "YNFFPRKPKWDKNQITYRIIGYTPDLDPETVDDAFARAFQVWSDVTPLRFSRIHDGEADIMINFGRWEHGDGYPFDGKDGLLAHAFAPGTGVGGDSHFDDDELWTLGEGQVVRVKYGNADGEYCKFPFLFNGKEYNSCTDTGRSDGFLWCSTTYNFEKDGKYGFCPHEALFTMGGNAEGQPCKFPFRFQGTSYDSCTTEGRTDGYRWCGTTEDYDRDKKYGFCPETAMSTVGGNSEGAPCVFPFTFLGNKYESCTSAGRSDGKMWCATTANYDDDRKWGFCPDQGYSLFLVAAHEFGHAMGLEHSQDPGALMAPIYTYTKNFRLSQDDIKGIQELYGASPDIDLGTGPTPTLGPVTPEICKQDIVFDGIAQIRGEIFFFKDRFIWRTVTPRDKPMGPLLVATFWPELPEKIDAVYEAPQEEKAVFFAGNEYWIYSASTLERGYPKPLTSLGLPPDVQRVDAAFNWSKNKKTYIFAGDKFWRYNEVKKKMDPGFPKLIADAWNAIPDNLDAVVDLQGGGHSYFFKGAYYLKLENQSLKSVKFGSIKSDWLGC", "assay": "In vitro MMP inhibition, Ki determination (fluorogenic substrate II)", "settings": "read-out: MMP-2 Ki", "protocol": "(§1) Several hydroxamic acids and salts thereof were analyzed in in vitro assays to determine their ability to inhibit the MMP cleavage of peptide substrates. […] and IC50 constants were calculated from the assayed hydroxamic acid-MMP interactions.\n(§2) Human recombinant MMP-1, MMP-2, MMP-9, MMP-13, and MMP-14 were used in this assay. All enzymes were prepared in Assignee's laboratories following usual laboratory procedures. Protocols for the preparation and use of these enzymes are available in the scientific literature. See, e.g., Enzyme Nomenclature (Academic Press, San Diego, Calif., 1992) (and the citations therein). See also, Freije et al., “Molecular cloning and expression of collagenase-3, a novel human matrix metalloproteinase produced by breast carcinomas,” J Biol. Chem., 269(24), 16766-16773 (1994).\nThe MMP-2 proenzyme was purified by gelatin Sepharose chromatography from MMP-2-transfected p2AHT2 cells provided by Dr. Gregory Goldberg of Washington University (St. Louis, Mo.).\n(§3) All MMPs were activated using 4-aminophenylmercuric acetate (“APMA”, Sigma Chemical, St. Louis, Mo.) or trypsin. MMP-9 also was activated using human recombinant MMP-3 (purified in Assignee's laboratory following standard cloning and purification techniques).\n(§4) Two fluorogenic, methoxycoumarin-containing polypeptide substrates were used in the MMP inhibition assays: [drawing 427] Here, “Dpa” is 3-(2,4-dinitrophenyl)-L-2,3-diaminopropionyl group, and “MCA” is 7-methoxycoumarin-4-yl acetyl. Substrate (I) was purchased from Baychem (Redwood City, Calif.), and substrate II was prepared Assignee's laboratory. Substrate I was used in the IC50 determination assays, while substrate II was used in the Ki determination assays. In the absence of MMP inhibitory activity, either substrate is cleaved at the Gly-Leu peptide bond. This cleavage separates the highly fluorogenic peptide from the 2,4-dinitrophenyl quencher, thus resulting in increase of fluorescent intensity.\n(§5) The stock solutions of the assayed hydroxamic acids (or salts thereof) were prepared in 1% dimethyl sulfoxide (DMSO). These stock solutions were diluted in Buffer A (100 mM Tris-HCl, 100 mM NaCl, 10 mM CaCl2, 0.05% polyoxyethylene 23 lauryl ether, pH 7.5) to obtain solutions with different hydroxamic acid concentrations, i.e., assay solutions with different concentrations of the assayed MMP inhibitory compound. The experiment controls contained the same amount of Buffer A/DMSO as the assayed sample, but contained no hydroxamic acid (or salt thereof).\nThe assays from which the Ki determinations were made were performed as follows. The assayed hydroxamic acid samples were incubated in separate wells of untreated white polystyrene plates (Nunc Nalgene International, Rochester, N.Y.), and analyzed on a Tecan SpectraFlour Plus plate reader. The excitation wavelength was 330 nm, and the emission wavelength—420 nm. All samples (assayed hydroxamic acids and controls) were incubated in separate plate wells at room temperature for 1 hr in the presence of 4 μM of MMP substrate (II). In the absence of MMP inhibitory activity, substrate II was cleaved at the Gly-Leu bond resulting in an increase of relative fluorescence. Inhibition was observed as a reduced rate of this increase in relative fluorescence. The various hydroxamic acids were analyzed using a single low enzyme concentration with a single substrate concentration fixed at or below the Km. This protocol is a modification of method by Knight et al., FEBS Lett., 296(3), 263-266 (1992). Apparent inhibitory constants were determined by non-linear regression of reaction velocity as a function of inhibitor and enzyme concentration using Morrison's equation, as described by Kuzmic, Anal. Biochem. 286, 45-50 (2000). […] Since the substrate concentration was chosen to be at or below the Km, the apparent Ki's from this analysis were reported as Ki's without correction for the influence of substrate."}, "[2]": {"molecular_target": "T2, MMP-13 (Homo sapiens, UniProt P45452)", "T2 construct": "made in house; host or cells: baculovirus / insect cells", "assay": "In vitro MMP inhibition, Ki determination (fluorogenic substrate II)", "settings": "read-out: MMP-13 Ki", "protocol": "as §1, §2\nThe MMP-13 was obtained as a proenzyme from a full-length cDNA clone using baculovirus, as described by V. A. Luckow, “Insect Cell Expression Technology,” Protein Engineering: Principles and Practice, pp. 183-218 (edited by J. L. Cleland et al., Wiley-Liss, Inc., 1996). The expressed proenzyme was first purified over a heparin agarose column, and then over a chelating zinc chloride column. The proenzyme was then activated by APMA for use in the assay. […] See also, O'Reilly et al, Baculovirus Expression Vectors: A Laboratory Manual (W.H. Freeman and Co., New York, N.Y., 1992). See also, King et al., The Baculovirus Expression System: A Laboratory Guide (Chapman & Hall, London, England, 1992).\nas §3, §4, §5\nThe assays from which the Ki determinations were made were performed as follows. The assayed hydroxamic acid samples were incubated in separate wells of untreated white polystyrene plates (Nunc Nalgene International, Rochester, N.Y.), and analyzed on a Tecan SpectraFlour Plus plate reader. The excitation wavelength was 330 nm, and the emission wavelength—420 nm. All samples (assayed hydroxamic acids and controls) were incubated in separate plate wells at room temperature for 1 hr in the presence of 4 μM of MMP substrate (II). In the absence of MMP inhibitory activity, substrate II was cleaved at the Gly-Leu bond resulting in an increase of relative fluorescence. Inhibition was observed as a reduced rate of this increase in relative fluorescence. The various hydroxamic acids were analyzed using a single low enzyme concentration with a single substrate concentration fixed at or below the Km."}, "[3]": {"molecular_target": "T1, MMP-2", "assay": "MMP-2 inhibition (in vitro Ki)", "settings": "Table 8; read-out: MMP-2 Ki"}, "[4]": {"molecular_target": "T3, MMP-1 (Homo sapiens, UniProt P03956)", "T3 construct": "made in house; host or cells: MMP-1-transfected HT-1080 cells (spent media)", "T3 sequence (P03956 100-469)": "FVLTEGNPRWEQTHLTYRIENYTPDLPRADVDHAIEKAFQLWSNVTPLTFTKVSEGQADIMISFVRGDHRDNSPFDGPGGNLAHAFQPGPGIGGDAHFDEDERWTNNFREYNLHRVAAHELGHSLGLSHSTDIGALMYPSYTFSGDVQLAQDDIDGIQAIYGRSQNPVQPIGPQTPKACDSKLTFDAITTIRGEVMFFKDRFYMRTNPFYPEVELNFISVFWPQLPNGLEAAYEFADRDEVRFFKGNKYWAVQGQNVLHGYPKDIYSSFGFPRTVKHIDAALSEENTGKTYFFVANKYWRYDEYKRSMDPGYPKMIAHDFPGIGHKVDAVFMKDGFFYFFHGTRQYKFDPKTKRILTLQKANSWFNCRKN", "assay": "MMP-1 inhibition (in vitro Ki)", "settings": "Table 8; read-out: MMP-1 Ki"}, "[5]": {"molecular_target": "T4, MMP-14 (Homo sapiens, UniProt P50281)", "T4 construct": "The catalytic domain enzyme was expressed in E. coli inclusion bodies, solubilized in urea; made in house", "assay": "MMP-14 inhibition (in vitro Ki)", "settings": "Table 8; read-out: MMP-14 Ki"}, "[6]": {"molecular_target": "T2, MMP-13", "assay": "MMP-13 inhibition (in vitro Ki)", "settings": "Table 8; read-out: MMP-13 Ki"}, "[7]": {"molecular_target": "T5, MMP-9 (Homo sapiens, UniProt P14780)", "T5 construct": "made in house; host or cells: MMP-9-transfected HT1080 cells (spent media)", "T5 sequence (P14780 107-707 limits assumed)": "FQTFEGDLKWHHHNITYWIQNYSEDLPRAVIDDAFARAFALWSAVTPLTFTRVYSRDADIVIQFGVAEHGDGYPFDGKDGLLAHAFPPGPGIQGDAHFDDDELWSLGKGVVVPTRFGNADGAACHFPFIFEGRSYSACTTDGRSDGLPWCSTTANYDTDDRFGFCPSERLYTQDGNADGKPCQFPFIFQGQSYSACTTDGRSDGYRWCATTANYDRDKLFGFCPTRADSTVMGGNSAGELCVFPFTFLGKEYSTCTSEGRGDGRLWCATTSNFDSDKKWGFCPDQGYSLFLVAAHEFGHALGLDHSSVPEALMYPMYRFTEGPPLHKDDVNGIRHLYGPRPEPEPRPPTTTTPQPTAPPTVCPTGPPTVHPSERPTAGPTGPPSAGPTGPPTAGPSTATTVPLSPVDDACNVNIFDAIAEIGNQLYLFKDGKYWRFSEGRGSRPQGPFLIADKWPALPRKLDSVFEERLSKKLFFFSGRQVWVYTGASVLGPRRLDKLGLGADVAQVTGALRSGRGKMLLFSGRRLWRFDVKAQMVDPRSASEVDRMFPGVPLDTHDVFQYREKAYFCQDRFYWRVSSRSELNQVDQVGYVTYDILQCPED", "assay": "MMP-9 inhibition (in vitro Ki)", "settings": "Table 8; read-out: MMP-9 Ki"}},
  "data": [
    {"smiles": "CCc1ccc(N2CCN(S(=O)(=O)C3(C(=O)NO)CCOCC3)CC2)nc1", "note": "[Example 137]", "values": [
      {"measurement": "Ki", "setting": "[1]; value not in parenthesis", "value": 0.37, "unit": "nM"},
      {"measurement": "Ki", "setting": "[2]; value not in parenthesis", "value": 0.75, "unit": "nM"}
    ]},
    {"smiles": "Cc1cccc(-c2csc(N3CCN(S(=O)(=O)C4(C(=O)NO)CCOCC4)CC3)n2)c1", "note": "[Example 414]", "values": [
      {"measurement": "Ki", "setting": "[1]; value outside parentheses", "value": 2660, "unit": "nM"},
      {"measurement": "Ki", "setting": "[2]; value outside parentheses", "value": 4190, "unit": "nM"}
    ]},
    {"smiles": "O=C(NO)C1(S(=O)(=O)N2CCC(CCCCCOCC(F)(F)F)CC2)CCOCC1", "note": "[Example A35, 4-{4-[5-(2,2,2-trifluoro-ethoxy)-pentyl]-piperidine-1-sulfonyl}-tetrahydro-pyran-4-carboxylic Acid Hydroxyamide]", "values": [
      {"measurement": "Ki", "setting": "[3]", "value": 2.22, "unit": "nM"},
      {"measurement": "Ki", "setting": "[4]", "value": 5290, "unit": "nM"},
      {"measurement": "Ki", "setting": "[5]", "value": 1710, "unit": "nM"},
      {"measurement": "Ki", "setting": "[6]", "value": 0.28, "unit": "nM"},
      {"measurement": "Ki", "setting": "[7]", "value": 2.68, "unit": "nM"}
    ]},
    {"smiles": "CCCCCCOC1CCN(S(=O)(=O)C2(C(=O)NO)CCOCC2)CC1", "note": "[Example A36, 4-(4-hexyloxy-piperidine-1-sulfonyl)-tetrahydro-pyran-4-carboxylic Acid Hydroxyamide]", "values": [
      {"measurement": "Ki", "setting": "[3]", "value": 3.51, "unit": "nM"},
      {"measurement": "Ki", "setting": "[4]", "value": "> 10000", "unit": "nM"},
      {"measurement": "Ki", "setting": "[5]", "value": 1940, "unit": "nM"},
      {"measurement": "Ki", "setting": "[6]", "value": 5.92, "unit": "nM"},
      {"measurement": "Ki", "setting": "[7]", "value": 0.95, "unit": "nM"}
    ]},
    {"smiles": "CCCCCOC1CCN(S(=O)(=O)C2(C(=O)NO)CCOCC2)CC1", "note": "[Example A36A]", "values": [
      {"measurement": "Ki", "setting": "[3]", "value": 6, "unit": "nM"},
      {"measurement": "Ki", "setting": "[4]", "value": "> 10000", "unit": "nM"},
      {"measurement": "Ki", "setting": "[5]", "value": 816, "unit": "nM"},
      {"measurement": "Ki", "setting": "[6]", "value": 9.36, "unit": "nM"},
      {"measurement": "Ki", "setting": "[7]", "value": 2.65, "unit": "nM"}
    ]},
    {"smiles": "CCCCCCCCOC1CCN(S(=O)(=O)C2(C(=O)NO)CCOCC2)CC1", "note": "[Example A36B]", "values": [
      {"measurement": "Ki", "setting": "[3]", "value": 1.87, "unit": "nM"},
      {"measurement": "Ki", "setting": "[4]", "value": "> 10000", "unit": "nM"},
      {"measurement": "Ki", "setting": "[5]", "value": 1080, "unit": "nM"},
      {"measurement": "Ki", "setting": "[6]", "value": 0.63, "unit": "nM"},
      {"measurement": "Ki", "setting": "[7]", "value": 1.34, "unit": "nM"}
    ]},
    {"smiles": "CCCCC=CCCOC1CCN(S(=O)(=O)C2(C(=O)NO)CCOCC2)CC1", "note": "[Example A36C]", "values": [
      {"measurement": "Ki", "setting": "[3]", "value": 3.93, "unit": "nM"},
      {"measurement": "Ki", "setting": "[4]", "value": "> 10000", "unit": "nM"},
      {"measurement": "Ki", "setting": "[5]", "value": 1900, "unit": "nM"},
      {"measurement": "Ki", "setting": "[6]", "value": 1.22, "unit": "nM"},
      {"measurement": "Ki", "setting": "[7]", "value": 3.41, "unit": "nM"}
    ]},
    {"smiles": "CC(C)CCCOC1CCN(S(=O)(=O)C2(C(=O)NO)CCOCC2)CC1", "note": "[Example A36D]", "values": [
      {"measurement": "Ki", "setting": "[3]", "value": 11.9, "unit": "nM"},
      {"measurement": "Ki", "setting": "[4]", "value": "> 10000", "unit": "nM"},
      {"measurement": "Ki", "setting": "[5]", "value": 4060, "unit": "nM"},
      {"measurement": "Ki", "setting": "[6]", "value": 19.9, "unit": "nM"},
      {"measurement": "Ki", "setting": "[7]", "value": 39.1, "unit": "nM"}
    ]}
  ]
}
